# Experimental data from article PMC10526264, “VprBP/DCAF1 Triggers Melanomagenic Gene Silencing through Histone H2A Phosphorylation” (Biomedicines, 2023).
# Target: VprBP/DCAF1 (Vpr binding protein) (Homo sapiens, UniProt Q9Y4B6)
# Experiment: Western blot of H2AT120p (VprBP substrate mark) in G361 and MeWo melanoma cells treated […] h with […] B32B3
# Format: cell-based
# VprBP/DCAF1 (Vpr binding protein), sequence (Q9Y4B6 whole entry): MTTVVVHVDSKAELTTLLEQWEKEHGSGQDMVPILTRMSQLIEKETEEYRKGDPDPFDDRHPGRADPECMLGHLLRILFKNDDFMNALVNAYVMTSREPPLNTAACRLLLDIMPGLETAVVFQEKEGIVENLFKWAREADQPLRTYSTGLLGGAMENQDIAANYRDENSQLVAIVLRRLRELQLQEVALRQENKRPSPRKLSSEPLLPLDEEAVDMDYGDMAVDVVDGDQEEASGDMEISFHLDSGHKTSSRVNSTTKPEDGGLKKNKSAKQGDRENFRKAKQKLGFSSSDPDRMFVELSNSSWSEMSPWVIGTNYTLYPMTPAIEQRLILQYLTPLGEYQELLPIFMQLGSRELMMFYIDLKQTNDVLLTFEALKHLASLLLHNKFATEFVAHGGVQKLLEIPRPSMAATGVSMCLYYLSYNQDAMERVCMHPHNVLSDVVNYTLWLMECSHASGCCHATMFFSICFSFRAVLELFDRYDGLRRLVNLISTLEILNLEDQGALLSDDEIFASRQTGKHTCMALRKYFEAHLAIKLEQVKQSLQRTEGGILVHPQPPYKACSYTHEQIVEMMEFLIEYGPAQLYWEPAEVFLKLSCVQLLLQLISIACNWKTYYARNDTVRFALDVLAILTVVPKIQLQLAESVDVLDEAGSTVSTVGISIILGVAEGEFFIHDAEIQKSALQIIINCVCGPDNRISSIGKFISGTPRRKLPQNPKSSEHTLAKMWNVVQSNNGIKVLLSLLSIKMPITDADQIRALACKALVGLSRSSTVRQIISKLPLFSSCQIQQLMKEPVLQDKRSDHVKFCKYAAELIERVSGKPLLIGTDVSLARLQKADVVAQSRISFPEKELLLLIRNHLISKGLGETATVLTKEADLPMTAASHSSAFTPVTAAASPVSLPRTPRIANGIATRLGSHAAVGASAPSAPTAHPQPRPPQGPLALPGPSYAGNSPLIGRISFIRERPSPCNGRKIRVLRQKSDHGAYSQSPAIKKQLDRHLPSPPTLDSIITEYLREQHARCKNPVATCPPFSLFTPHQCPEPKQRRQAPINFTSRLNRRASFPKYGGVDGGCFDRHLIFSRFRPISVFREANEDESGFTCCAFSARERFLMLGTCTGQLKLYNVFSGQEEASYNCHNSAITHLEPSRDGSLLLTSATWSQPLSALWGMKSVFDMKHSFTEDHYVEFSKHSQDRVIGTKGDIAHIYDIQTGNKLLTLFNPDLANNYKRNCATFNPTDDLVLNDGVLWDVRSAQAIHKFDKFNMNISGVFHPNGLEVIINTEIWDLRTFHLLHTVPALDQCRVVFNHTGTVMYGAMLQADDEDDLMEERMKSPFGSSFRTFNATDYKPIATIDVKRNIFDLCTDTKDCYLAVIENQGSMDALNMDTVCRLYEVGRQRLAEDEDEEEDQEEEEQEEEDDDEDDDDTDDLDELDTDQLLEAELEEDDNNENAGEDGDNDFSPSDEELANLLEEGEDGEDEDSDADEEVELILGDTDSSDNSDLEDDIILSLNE
smiles,measurement,value
C(=N\Nc1ncnc2sc3c(c12)CCCC3)/c1c[nH]c2ccccc12 [B32B3],IC50,100 nM
